We go through 12 substances from patent publication US20240239854A1, “ANTIMICROBIAL PEPTIDES AND MODIFICATIONS THEREOF” (Donald Danforth Plant Science Center, priority 2022, published 2024).

No end group written: not given here. A value given as a limit tells only on which side of the number the result lay.

What all share (assay type): cell-based
The subject of assay [1] is Fusarium graminearum PH-1. Particulars: for F. graminearum PH-1 MIC Day1: MIC Day 1, 96-well plate, resazurin cell viability. For orientation: Alamar Blue is a resazurin reagent that responds to reducing activity.
For a further assay, the system named is Botrytis cinerea T4.
Assay [2] has as its system Zymoseptoria tritici IPO323.

On to “PD88.1.1: Fraxinus excelsior wild-type defensin SEQ ID NO: 565 with N-terminal alanine, expressed in Pichia pastoris (KHCAKLSKGWHGFCAPHKCSRYCIHHEGAYDGACLKHHHSKHIGCYCYYRHC; N-terminal alanine; Fraxinus excelsior)”, for which the “F. graminearum PH-1 MIC Day1” value in assay [1] was >12 µM. Moreover, the “B. cinerea T4 MIC Day1” value in the assay with Botrytis cinerea T4 was 0.75 µM. In assay [2], the “Z. tritici IPO323 MIC Day 1” value worked out at 1.5 µM, the “Z. tritici IPO323 MIC Day 7” value was 3 µM and the “Z. tritici IPO323 MIC Day 14” value came to 4 µM.

On to “PD89.1.2: Crambe maritima wild-type defensin SEQ ID NO: 569 with N-terminal alanine, expressed in Pichia pastoris (KLCRKPSGTWSGLCANSDSCRKQCINLEKAKDGSCKYKFPAHKCFCYY; N-terminal alanine; listed as Crambe maritima)”, for which the “F. graminearum PH-1 MIC Day1” value in assay [1] was 12 µM. Also, the “B. cinerea T4 MIC Day1” value in the assay on Botrytis cinerea T4 is 2.5 µM. In assay [2], the “Z. tritici IPO323 MIC Day 1” value was 1.5 µM, the “Z. tritici IPO323 MIC Day 7” value was 6 µM and the “Z. tritici IPO323 MIC Day 14” value came out at 12 µM.

Consider “PD117.1.1: Manihot esculenta wild-type defensin SEQ ID NO: 692 with N-terminal alanine, expressed in Pichia pastoris (RICVKPEPLAHCTETICTQFCIRKYGPPPGTVGKCNLPPGFCTCYHNC; N-terminal alanine added; listed as Manihot esculenta)”, for which the “F. graminearum PH-1 MIC Day1” value in assay [1] is >12 µM. In the assay with Botrytis cinerea T4, the “B. cinerea T4 MIC Day1” value is >12 µM. In addition, in assay [2], the “Z. tritici IPO323 MIC Day 1” value was >12 µM, the “Z. tritici IPO323 MIC Day 7” value is >12 µM and the “Z. tritici IPO323 MIC Day 14” value is >12 µM.

As to “PD103.1.1: Eucalyptus grandis wild-type defensin SEQ ID NO: 633 with N-terminal alanine, expressed in Pichia pastoris (ATCRKPSMYFSGACFSRTNCQKACNREDWPNGKCLVGFKCFCQRPC; cysteine pairing not given here; also: N-terminal alanine added, unclear whether it is the first A of the chain; listed as Eucalyptus grandis)”, the “F. graminearum PH-1 MIC Day1” value in assay [1] amounted to 2.5 µM. Further, the “B. cinerea T4 MIC Day1” value in the assay with Botrytis cinerea T4 was 1.75 µM. In addition, in assay [2], the “Z. tritici IPO323 MIC Day 1” value worked out at 1.25 µM, the “Z. tritici IPO323 MIC Day 7” value turned out to be 1.25 µM and the “Z. tritici IPO323 MIC Day 14” value was 3 µM.

Turning to “PD92.1.1: Trifolium pratense wild-type defensin SEQ ID NO: 583 with N-terminal alanine, expressed in Pichia pastoris (RKCESKRRWIYGNCLSDEKCASDCLVKGFLFGKCRGYDNRCYCKKPRC; N-terminal alanine; Trifolium pratense)”, the “F. graminearum PH-1 MIC Day1” value in assay [1] is 3 µM. Further, the “B. cinerea T4 MIC Day1” value in the assay on Botrytis cinerea T4 was determined as 3 µM. Moreover, in assay [2], the “Z. tritici IPO323 MIC Day 1” value came to 0.75 µM, the “Z. tritici IPO323 MIC Day 7” value was found to be 1.75 µM and the “Z. tritici IPO323 MIC Day 14” value was found to be 2.5 µM.

As for “PD115.1.1: Lupinus albus wild-type defensin SEQ ID NO: 683 with N-terminal alanine, expressed in Pichia pastoris (NNCKYESNKFHGVCLSDTNCESVCQTEGFPFGKCDGVLPRTCVCKKPC; N-terminal alanine added; listed as Lupinus albus)”, the “F. graminearum PH-1 MIC Day1” value in assay [1] was >12 µM. The “B. cinerea T4 MIC Day1” value with Botrytis cinerea T4 is >12 µM. In assay [2], the “Z. tritici IPO323 MIC Day 1” value was >12 µM, the “Z. tritici IPO323 MIC Day 7” value is >12 µM and the “Z. tritici IPO323 MIC Day 14” value was >12 µM.

Regarding “PD123.1.1: Striga asiatica wild-type defensin SEQ ID NO: 719 with N-terminal alanine, expressed in Pichia pastoris (RKCESKSQQFKGLCFIKANCAAVCRTEGFHSGHCRGFRRRCYCTKHC; N-terminal alanine added; listed as Striga asiatica)”, the “F. graminearum PH-1 MIC Day1” value in assay [1] stood at 6 µM. The “B. cinerea T4 MIC Day1” value with Botrytis cinerea T4 amounted to 6 µM. In assay [2], the “Z. tritici IPO323 MIC Day 1” value was 3 µM, the “Z. tritici IPO323 MIC Day 7” value stood at 5 µM and the “Z. tritici IPO323 MIC Day 14” value turned out to be 10 µM.

For the substance “PD108.1.1: Fragaria x anannasa wild-type defensin SEQ ID NO: 653 with N-terminal alanine, expressed in Pichia pastoris (KTCESPSAKFEGPCIMGSNCALTCQKEGHDGGFCRDFWLPKCFCTKPC; N-terminal alanine added; Fragaria X ananassa)”, the “F. graminearum PH-1 MIC Day1” value in assay [1] was >12 µM. The “B. cinerea T4 MIC Day1” value in the assay on Botrytis cinerea T4 was >12 µM. For the same substance, in assay [2], the “Z. tritici IPO323 MIC Day 1” value is >12 µM, the “Z. tritici IPO323 MIC Day 7” value was >12 µM and the “Z. tritici IPO323 MIC Day 14” value was >12 µM.

“PD81.1.1: Pinus sylvestris wild-type defensin SEQ ID NO: 534 with N-terminal alanine, expressed in Pichia pastoris (RMCKTPSGKFKGYCVSSTNCKNVCRTEGFPTGSCDFHVASRKCYCYKPC; N-terminal alanine added; listed as Pinus sylvestris)”: the “F. graminearum PH-1 MIC Day1” value in assay [1] came out at 1.5 µM. In addition, in the assay with Botrytis cinerea T4, the “B. cinerea T4 MIC Day1” value came to 1 µM. Further, the “MIC, in-vitro antifungal activity against B. cinerea” value against Botrytis cinerea T4 (48 hours) stood at 1 µM. For the same substance, in assay [2], the “Z. tritici IPO323 MIC Day 1” value is 0.5 µM, the “Z. tritici IPO323 MIC Day 7” value turned out to be 0.75 µM and the “Z. tritici IPO323 MIC Day 14” value amounted to 3 µM.

Turning to “PD87.1.1: Raphanus sativus wild-type defensin SEQ ID NO: 560 with N-terminal alanine, expressed in Pichia pastoris (KLCQRPSGTWSGVCGNNNACKNQCIRLEKARHGSCNYVFPAHKCICYFPC; N-terminal alanine; listed as Raphanus sativus)”, the “MIC, in-vitro antifungal activity against F. graminearum” value in assay [1] (F. graminearum PH-1, 48 hours) worked out at 0.75 µM. For the same substance, the “F. graminearum PH-1 MIC Day1” value in assay [1] is 0.75 µM. Moreover, in the assay on Botrytis cinerea T4, the “B. cinerea T4 MIC Day1” value was determined as 0.375 µM. Also, in assay [2], the “Z. tritici IPO323 MIC Day 1” value stood at 0.375 µM, the “Z. tritici IPO323 MIC Day 7” value amounted to 1.5 µM and the “Z. tritici IPO323 MIC Day 14” value amounted to 2.5 µM.

On to “PD121.1.1: Setaria italica wild-type defensin SEQ ID NO: 711 with N-terminal alanine, expressed in Pichia pastoris (RHCLSQSHHFKGLCLSSSNCANVCRVERFPDGECQTTAGTRKCFCKRIC; N-terminal alanine added; listed as Setaria italica)”, for which, in assay [1], the “F. graminearum PH-1 MIC Day1” value worked out at 1.5 µM. Moreover, the “B. cinerea T4 MIC Day1” value in the assay on Botrytis cinerea T4 was determined as 2 µM. In addition, in assay [2], the “Z. tritici IPO323 MIC Day 1” value was 1 µM, the “Z. tritici IPO323 MIC Day 7” value is 4 µM and the “Z. tritici IPO323 MIC Day 14” value stood at 5 µM.

“PD128.1.1: wild-type defensin-like protein SEQ ID NO: 734 with N-terminal alanine, expressed in Pichia pastoris (RVCLRRSKTWTGFCGNTRGFDSQCKRWECALHGACHC; N-terminal alanine added; listed as Lepidium sativum)”: the “F. graminearum PH-1 MIC Day1” value in assay [1] is >12 µM. The “B. cinerea T4 MIC Day1” value in the assay on Botrytis cinerea T4 is 3 µM. Further, in assay [2], the “Z. tritici IPO323 MIC Day 1” value was determined as 3 µM, the “Z. tritici IPO323 MIC Day 7” value stood at 7 µM and the “Z. tritici IPO323 MIC Day 14” value is 8 µM.
